Results on 1 compound are retold here after patent US5135943A, “1H-imidazole derivative compounds and pharmaceutical compositions containing the same” (priority 1984, dated 1992).

Values after ≈ are worked out from the molar mass of the structure shown.

In the test the test system is Candida s.p. As to the kind of experiment: MIC by two-fold dilution, Candida s.p. The format is cell-based. On the procedure: Minimum Inhibitory Concentrations (MICS) of Sertaconazole and Miconazole against 107 yeasts, 47 dermatophytes and 4 fungi were determined by a two-fold dilution method.

For `Clc1ccc(C(Cn2ccnc2)OCc2csc3c(Cl)cccc23)c(Cl)c1` (centres unmarked) [Sertaconazole], the MIC (Candida, 15 strains, read-out: Minimum Inhibitory Concentration) came out at 0.5 µg/mL (≈ 1.14 µM). Besides, the “increase of activity in comparison to Miconazole” value (in vitro) is 47.4%.
